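Results reflect a 48-hour exposure of cells in 96-well plates to compound at five concentrations. GI50: concentration for 50% inhibition of growth. Definition used: TGI = concentration required for complete inhibition of growth.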
What was measured:
Assay in all cases: NCI-60 cell line screen, 48 h
M14 melanoma = tested on: M14 melanoma
KM12 colon = tested on: KM12 colon
RPMI-8226 leukemia = tested on: RPMI-8226 leukemia
LOX IMVI melanoma = tested on: LOX IMVI melanoma
PC-3 prostate = tested on: PC-3 prostate
SNB-19 CNS = tested on: SNB-19 CNS
HL-60(TB) leukemia = tested on: HL-60(TB) leukemia
COLO 205 colon = tested on: COLO 205 colon
SF-295 CNS = tested on: SF-295 CNS
RXF 393 renal = tested on: RXF 393 renal
786-0 renal = tested on: 786-0 renal
UACC-62 melanoma = tested on: UACC-62 melanoma
SK-OV-3 ovarian = tested on: SK-OV-3 ovarian
OVCAR-8 ovarian = tested on: OVCAR-8 ovarian
ACHN renal = tested on: ACHN renal
NCI-H226 lung = tested on: NCI-H226 lung
T-47D breast = tested on: T-47D breast
CAKI-1 renal = tested on: CAKI-1 renal
SF-539 CNS = tested on: SF-539 CNS
SF-268 CNS = tested on: SF-268 CNS
SK-MEL-28 melanoma = tested on: SK-MEL-28 melanoma
SN12C renal = tested on: SN12C renal
HOP-62 NSCLC = tested on: HOP-62 NSCLC
U251 CNS = tested on: U251 CNS
HCT-116 colon = tested on: HCT-116 colon
A549 NSCLC = tested on: A549 NSCLC
HT29 colon = tested on: HT29 colon
HOP-92 NSCLC = tested on: HOP-92 NSCLC
OVCAR-3 ovarian = tested on: OVCAR-3 ovarian
UO-31 renal = tested on: UO-31 renal
EKVX NSCLC = tested on: EKVX NSCLC
MALME-3M melanoma = tested on: MALME-3M melanoma
MOLT-4 leukemia = tested on: MOLT-4 leukemia
HCC-2998 colon = tested on: HCC-2998 colon
NCI/ADR-RES ovarian = tested on: NCI/ADR-RES ovarian
SK-MEL-2 melanoma = tested on: SK-MEL-2 melanoma
SR leukemia = tested on: SR leukemia
NCI-H522 lung = tested on: NCI-H522 lung
MCF7 breast = tested on: MCF7 breast
DU-145 prostate = tested on: DU-145 prostate
SK-MEL-5 melanoma = tested on: SK-MEL-5 melanoma
HCT-15 colon = tested on: HCT-15 colon
NCI-H23 lung = tested on: NCI-H23 lung
A498 renal = tested on: A498 renal
OVCAR-5 ovarian = tested on: OVCAR-5 ovarian
NCI-H460 lung = tested on: NCI-H460 lung
MDA-MB-231 breast = tested on: MDA-MB-231 breast
SNB-75 CNS = tested on: SNB-75 CNS
SW-620 colon = tested on: SW-620 colon
OVCAR-4 ovarian = tested on: OVCAR-4 ovarian
MDA-MB-435 = tested on: MDA-MB-435
BT-549 breast = tested on: BT-549 breast
UACC-257 melanoma = tested on: UACC-257 melanoma
CCRF-CEM leukemia = tested on: CCRF-CEM leukemia
TK-10 renal = tested on: TK-10 renal
HS 578T breast = tested on: HS 578T breast
K-562 leukemia = tested on: K-562 leukemia
IGROV1 ovarian = tested on: IGROV1 ovarian
MDA-N = tested on: MDA-N

CC1=C(C(=O)Nc2cc(Cl)c3[nH]ncc3c2)C(c2ccc(C(F)(F)F)cc2)CC(=O)N1 (centres undefined)
GI50 (M14 melanoma): > 25 µM
TGI (M14 melanoma): > 25 µM
GI50 (KM12 colon): 20 µM
TGI (KM12 colon): > 25 µM
GI50 (RPMI-8226 leukemia): 24.9 µM
TGI (RPMI-8226 leukemia): > 25 µM
GI50 (LOX IMVI melanoma): > 20.4 µM
TGI (LOX IMVI melanoma): > 25 µM
GI50 (PC-3 prostate): > 25 µM
TGI (PC-3 prostate): > 25 µM
GI50 (SNB-19 CNS): > 25 µM
TGI (SNB-19 CNS): > 25 µM
GI50 (HL-60(TB) leukemia): > 21.2 µM
TGI (HL-60(TB) leukemia): > 25 µM
GI50 (COLO 205 colon): 14.8 µM
TGI (COLO 205 colon): > 25 µM
GI50 (SF-295 CNS): 8.6 µM
TGI (SF-295 CNS): > 25 µM
GI50 (RXF 393 renal): 2.37 µM
TGI (RXF 393 renal): > 25 µM
GI50 (786-0 renal): 11.7 µM
TGI (786-0 renal): > 25 µM
GI50 (UACC-62 melanoma): 19 µM
TGI (UACC-62 melanoma): > 25 µM
GI50 (SK-OV-3 ovarian): > 25 µM
TGI (SK-OV-3 ovarian): > 25 µM
GI50 (OVCAR-8 ovarian): > 25 µM
TGI (OVCAR-8 ovarian): > 25 µM
GI50 (ACHN renal): > 25 µM
TGI (ACHN renal): > 25 µM
GI50 (NCI-H226 lung): 2.11 µM
TGI (NCI-H226 lung): > 25 µM
GI50 (T-47D breast): > 12.8 µM
TGI (T-47D breast): > 25 µM
GI50 (CAKI-1 renal): > 25 µM
TGI (CAKI-1 renal): > 25 µM
GI50 (SF-539 CNS): 14.8 µM
TGI (SF-539 CNS): > 25 µM
GI50 (SF-268 CNS): 11.7 µM
TGI (SF-268 CNS): > 25 µM
GI50 (SK-MEL-28 melanoma): > 25 µM
TGI (SK-MEL-28 melanoma): > 25 µM
GI50 (SN12C renal): > 25 µM
TGI (SN12C renal): > 25 µM
GI50 (HOP-62 NSCLC): 5.07 µM
TGI (HOP-62 NSCLC): > 25 µM
GI50 (U251 CNS): > 25 µM
TGI (U251 CNS): > 25 µM
GI50 (HCT-116 colon): > 22.4 µM
TGI (HCT-116 colon): > 25 µM
GI50 (A549 NSCLC): > 25 µM
TGI (A549 NSCLC): > 25 µM
GI50 (HT29 colon): > 25 µM
TGI (HT29 colon): > 25 µM
GI50 (HOP-92 NSCLC): 0.145 µM
TGI (HOP-92 NSCLC): > 25 µM
GI50 (OVCAR-3 ovarian): > 25 µM
TGI (OVCAR-3 ovarian): > 25 µM
GI50 (UO-31 renal): 2 µM
TGI (UO-31 renal): > 25 µM
GI50 (EKVX NSCLC): > 25 µM
TGI (EKVX NSCLC): > 25 µM
GI50 (MALME-3M melanoma): 13.1 µM
TGI (MALME-3M melanoma): > 25 µM
GI50 (MOLT-4 leukemia): 11.8 µM
TGI (MOLT-4 leukemia): > 25 µM
GI50 (HCC-2998 colon): > 25 µM
TGI (HCC-2998 colon): > 25 µM
GI50 (NCI/ADR-RES ovarian): > 25 µM
TGI (NCI/ADR-RES ovarian): > 25 µM
GI50 (SK-MEL-2 melanoma): > 25 µM
TGI (SK-MEL-2 melanoma): > 25 µM
GI50 (SR leukemia): > 7.84 µM
TGI (SR leukemia): > 25 µM
GI50 (NCI-H522 lung): > 18.7 µM
TGI (NCI-H522 lung): > 25 µM
GI50 (MCF7 breast): > 16.1 µM
TGI (MCF7 breast): > 25 µM
GI50 (DU-145 prostate): > 25 µM
TGI (DU-145 prostate): > 25 µM
GI50 (SK-MEL-5 melanoma): 11.4 µM
TGI (SK-MEL-5 melanoma): > 25 µM
GI50 (HCT-15 colon): > 25 µM
TGI (HCT-15 colon): > 25 µM
GI50 (NCI-H23 lung): > 25 µM
TGI (NCI-H23 lung): > 25 µM
GI50 (A498 renal): 11.7 µM
TGI (A498 renal): > 25 µM
GI50 (OVCAR-5 ovarian): > 25 µM
TGI (OVCAR-5 ovarian): > 25 µM
GI50 (NCI-H460 lung): > 25 µM
TGI (NCI-H460 lung): > 25 µM
GI50 (MDA-MB-231 breast): 13.7 µM
TGI (MDA-MB-231 breast): > 25 µM
GI50 (SNB-75 CNS): 3.13 µM
TGI (SNB-75 CNS): > 25 µM
GI50 (SW-620 colon): > 25 µM
TGI (SW-620 colon): > 25 µM
GI50 (OVCAR-4 ovarian): > 25 µM
TGI (OVCAR-4 ovarian): > 25 µM
GI50 (MDA-MB-435): > 23.3 µM
TGI (MDA-MB-435): > 25 µM
GI50 (BT-549 breast): 5.07 µM
TGI (BT-549 breast): > 25 µM
GI50 (UACC-257 melanoma): > 25 µM
TGI (UACC-257 melanoma): > 25 µM
GI50 (CCRF-CEM leukemia): 13.8 µM
TGI (CCRF-CEM leukemia): > 25 µM
GI50 (TK-10 renal): > 17.6 µM
TGI (TK-10 renal): > 25 µM
GI50 (HS 578T breast): 0.898 µM
TGI (HS 578T breast): > 25 µM
GI50 (K-562 leukemia): > 25 µM
TGI (K-562 leukemia): > 25 µM
GI50 (IGROV1 ovarian): > 25 µM
TGI (IGROV1 ovarian): > 25 µM

CN1C(=O)C(O)CC1c1ccccc1C(F)(F)F (centres undefined)
TGI (M14 melanoma): > 100 µM
TGI (KM12 colon): > 100 µM
TGI (RPMI-8226 leukemia): > 100 µM
TGI (LOX IMVI melanoma): > 100 µM
TGI (PC-3 prostate): > 100 µM
TGI (SNB-19 CNS): > 100 µM
TGI (HL-60(TB) leukemia): > 100 µM
TGI (COLO 205 colon): > 100 µM
TGI (SF-295 CNS): > 100 µM
TGI (RXF 393 renal): > 100 µM
TGI (786-0 renal): > 100 µM
TGI (UACC-62 melanoma): > 100 µM
TGI (SK-OV-3 ovarian): > 100 µM
TGI (OVCAR-8 ovarian): > 100 µM
TGI (ACHN renal): > 100 µM
TGI (NCI-H226 lung): > 100 µM
TGI (CAKI-1 renal): > 100 µM
TGI (SF-539 CNS): > 100 µM
TGI (SK-MEL-28 melanoma): > 100 µM
TGI (SN12C renal): > 100 µM
TGI (HOP-62 NSCLC): > 100 µM
TGI (MDA-N): > 100 µM
TGI (U251 CNS): > 100 µM
TGI (HCT-116 colon): > 100 µM
TGI (A549 NSCLC): > 100 µM
TGI (HT29 colon): > 100 µM
TGI (HOP-92 NSCLC): > 100 µM
TGI (OVCAR-3 ovarian): > 100 µM
TGI (UO-31 renal): > 100 µM
TGI (EKVX NSCLC): > 100 µM
TGI (MALME-3M melanoma): > 100 µM
TGI (MOLT-4 leukemia): > 100 µM
TGI (HCC-2998 colon): > 100 µM
TGI (NCI/ADR-RES ovarian): > 100 µM
TGI (SK-MEL-2 melanoma): > 100 µM
TGI (NCI-H522 lung): > 100 µM
TGI (MCF7 breast): > 100 µM
TGI (DU-145 prostate): > 100 µM
TGI (SK-MEL-5 melanoma): > 100 µM
TGI (HCT-15 colon): > 100 µM
TGI (NCI-H23 lung): > 100 µM
TGI (A498 renal): > 100 µM
TGI (OVCAR-5 ovarian): > 100 µM
TGI (NCI-H460 lung): > 100 µM
TGI (MDA-MB-231 breast): > 100 µM
TGI (SNB-75 CNS): > 100 µM
TGI (SW-620 colon): > 100 µM
TGI (OVCAR-4 ovarian): > 100 µM
TGI (MDA-MB-435): > 100 µM
TGI (BT-549 breast): > 100 µM
TGI (UACC-257 melanoma): > 100 µM
TGI (CCRF-CEM leukemia): > 100 µM
TGI (IGROV1 ovarian): > 100 µM
